Active and inactive are the calls of the source. The calls are words filed in the database; no cut-off is given here.
Columns and labels:
MDA-MB-231 [1] = assay: Induction of apoptosis in human MDA-MB-231 cells assessed as early apoptotic cells at 1 uM incubated for 24 hrs by annexinV-FITC and propidium iodide staining based flow cytometric analysis (reference value: 3.2%); type: functional
HCT-116 = assay: Antiproliferative activity against human HCT116 cells assessed as reduction in cell viability incubated for 48 hrs by MTT assay; type: functional, cell-based; conditions: HCT-116, 48 h
MCF7 = assay: Antiproliferative activity against human MCF7 cells assessed as reduction in cell viability incubated for 48 hrs by MTT assay; type: functional, cell-based; conditions: MCF7, 48 h
MDA-MB-231 [2] = assay: Potency index, ratio of IC50 of BTP to ratio of IC50 of compound for antiproliferative activity against human MDA-MB-231 cells assessed as reduction in cell viability incubated for 48 hrs by MTT assay; type: functional
HepG2 = assay: Potency index, ratio of IC50 of BTP to ratio of IC50 of compound for antiproliferative activity against human HepG2 cells assessed as reduction in cell viability incubated for 48 hrs by MTT assay; type: functional
[3] = Selectivity index, ratio of IC50 for human MCF10A cells to IC50 for human MDA-MB-231 cells; type: toxicity; conditions: MCF10A cells versus MDA-MB-231 cells, read-out: Ratio IC50
[4] = Selectivity index, ratio of IC50 for human L02 cells to IC50 for human HepG2 cells; type: toxicity; conditions: L02 cells versus HepG2 cells, read-out: Ratio IC50
MDA-MB-231 [5] = assay: Inhibition of colony formation in human MDA-MB-231 cells assessed as reduction in cell proliferation at 1 uM treated for 24 hrs and measured after 10 to 14 days by crystal violet staining based assay; type: functional
MDA-MB-231 [6] = assay: Induction of apoptosis in human MDA-MB-231 cells assessed as late apoptotic cells at 1 uM incubated for 24 hrs by annexinV-FITC and propidium iodide staining based flow cytometric analysis (reference value: 1.0%); type: functional
MDA-MB-231 [7] = assay: Induction of apoptosis in human MDA-MB-231 cells assessed as viable cells at 2 uM incubated for 24 hrs by annexinV-FITC and propidium iodide staining based flow cytometric analysis (reference value: 95.1%); type: functional; conditions: MDA-MB-231, 24 h, read-out: Activity
MDA-MB-231 [8] = assay: Induction of apoptosis in human MDA-MB-231 cells assessed as early apoptotic cells at 2 uM incubated for 24 hrs by annexinV-FITC and propidium iodide staining based flow cytometric analysis (reference value: 3.2%); type: functional
MDA-MB-231 [9] = assay: Induction of apoptosis in human MDA-MB-231 cells assessed as early apoptotic cells at 4 uM incubated for 24 hrs by annexinV-FITC and propidium iodide staining based flow cytometric analysis (reference value: 3.2%); type: functional
MDA-MB-231 [10] = assay: Induction of apoptosis in human MDA-MB-231 cells assessed as necrotic cells at 4 uM incubated for 24 hrs by annexinV-FITC and propidium iodide staining based flow cytometric analysis (reference value: 0.8%); type: functional
MDA-MB-231 [11] = assay: Induction of apoptosis in human MDA-MB-231 cells assessed as increase in cleaved PARP levels at 1 to 4 uM incubated for 24 hrs by Western blot analysis; type: functional, cell-based
[12] = Drug accumulation in mitochondria of human MDA-MB-231 cells at 2 uM incubated for 60 mins by mitotracker red staining based confocal microscopy; type: ADME; conditions: mda-mb-231, 1 h
[13] = Drug accumulation in mitochondria of human MCF7 cells at 5 uM incubated for 60 mins by mitotracker red staining based confocal microscopy; type: ADME; conditions: mcf7, 1 h
MDA-MB-231 [14] = assay: Induction of mitochondrial membrane depolarization in human MDA-MB-231 cells assessed as increase in green fluorescence incubated for 24 hrs JC-1 staining based flow cytometric analysis; type: functional, cell-based
MDA-MB-231 [15] = assay: Induction ROS accumulation in human MDA-MB-231 cells after 24 hrs by DCFH-DA staining-based flow cytometric analysis; type: functional, cell-based
[16] = molecular target: Signal transducer and activator of transcription 3 (Homo sapiens) (UniProt P40763); assay: Inhibition of STAT3 in human MDA-MB-231 cells assessed as decrease in STAT3 phosphorylation at Tyr705 residue incubated for 24 hrs by Western blot analysis; type: cell-based
Sequence of Signal transducer and activator of transcription 3 (Homo sapiens) (P40763 whole entry): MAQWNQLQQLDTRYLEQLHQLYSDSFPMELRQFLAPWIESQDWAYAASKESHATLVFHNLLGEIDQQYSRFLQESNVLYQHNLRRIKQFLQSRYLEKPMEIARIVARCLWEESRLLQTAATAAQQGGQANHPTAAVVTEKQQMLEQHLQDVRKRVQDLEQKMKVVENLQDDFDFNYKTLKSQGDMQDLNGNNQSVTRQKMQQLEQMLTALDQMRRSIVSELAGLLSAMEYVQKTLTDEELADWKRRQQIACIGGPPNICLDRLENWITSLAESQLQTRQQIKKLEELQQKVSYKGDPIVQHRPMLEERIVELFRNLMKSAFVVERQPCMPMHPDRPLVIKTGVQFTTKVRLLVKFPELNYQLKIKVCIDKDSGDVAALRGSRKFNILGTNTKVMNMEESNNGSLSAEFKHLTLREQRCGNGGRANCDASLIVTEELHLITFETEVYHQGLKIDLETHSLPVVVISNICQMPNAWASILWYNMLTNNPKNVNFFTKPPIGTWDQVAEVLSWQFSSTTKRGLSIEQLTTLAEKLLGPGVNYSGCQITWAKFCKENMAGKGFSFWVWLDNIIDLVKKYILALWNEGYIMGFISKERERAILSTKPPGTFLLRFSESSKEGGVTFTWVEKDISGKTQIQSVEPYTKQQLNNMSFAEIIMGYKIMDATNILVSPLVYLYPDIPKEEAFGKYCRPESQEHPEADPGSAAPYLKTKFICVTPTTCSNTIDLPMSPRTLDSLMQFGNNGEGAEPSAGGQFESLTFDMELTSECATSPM

[17] = molecular target: Signal transducer and activator of transcription 3 (Homo sapiens) (UniProt P40763); assay: Inhibition of STAT3 in human MDA-MB-231 cells assessed as decrease in STAT3 phosphorylation at Ser727 residue incubated for 24 hrs by Western blot analysis; type: cell-based
[18] = molecular target: Tyrosine-protein kinase JAK2 (Homo sapiens) (UniProt O60674); assay: Inhibition of JAK2 in human MDA-MB-231 cells assessed as reduction in JAK2 phosphorylation at 1 to 4 uM incubated for 24 hrs by Western blot analysis; type: cell-based
Sequence of Tyrosine-protein kinase JAK2 (Homo sapiens) (O60674 whole entry): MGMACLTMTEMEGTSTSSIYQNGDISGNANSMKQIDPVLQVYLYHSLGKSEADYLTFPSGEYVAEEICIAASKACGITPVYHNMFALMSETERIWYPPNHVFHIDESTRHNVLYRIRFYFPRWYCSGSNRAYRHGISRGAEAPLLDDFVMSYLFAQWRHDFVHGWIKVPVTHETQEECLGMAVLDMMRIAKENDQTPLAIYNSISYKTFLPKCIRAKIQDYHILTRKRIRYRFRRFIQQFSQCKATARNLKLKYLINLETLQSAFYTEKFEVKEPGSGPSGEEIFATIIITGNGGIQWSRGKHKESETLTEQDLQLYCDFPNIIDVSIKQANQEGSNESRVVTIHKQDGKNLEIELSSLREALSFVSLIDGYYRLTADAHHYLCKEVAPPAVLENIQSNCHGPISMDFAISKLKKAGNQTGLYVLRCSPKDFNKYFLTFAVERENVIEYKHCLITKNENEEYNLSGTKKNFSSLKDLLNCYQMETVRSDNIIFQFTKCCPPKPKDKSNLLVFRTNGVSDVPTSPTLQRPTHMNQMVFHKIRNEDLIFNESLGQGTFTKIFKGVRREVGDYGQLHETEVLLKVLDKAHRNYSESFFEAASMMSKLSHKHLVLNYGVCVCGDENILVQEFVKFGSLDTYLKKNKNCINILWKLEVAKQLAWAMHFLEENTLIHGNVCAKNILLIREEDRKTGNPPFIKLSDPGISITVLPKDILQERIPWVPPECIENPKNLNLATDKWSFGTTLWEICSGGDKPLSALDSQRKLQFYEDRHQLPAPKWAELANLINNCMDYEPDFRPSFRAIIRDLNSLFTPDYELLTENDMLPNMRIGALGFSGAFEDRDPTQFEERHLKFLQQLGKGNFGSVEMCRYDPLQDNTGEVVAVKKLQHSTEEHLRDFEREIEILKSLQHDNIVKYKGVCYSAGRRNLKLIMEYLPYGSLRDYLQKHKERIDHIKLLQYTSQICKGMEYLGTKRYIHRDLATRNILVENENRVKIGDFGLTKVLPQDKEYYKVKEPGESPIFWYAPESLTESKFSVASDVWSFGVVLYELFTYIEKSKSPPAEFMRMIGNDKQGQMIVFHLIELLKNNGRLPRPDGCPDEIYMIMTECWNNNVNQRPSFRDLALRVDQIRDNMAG

[19] = molecular target: Signal transducer and activator of transcription 3 (Homo sapiens) (UniProt P40763); assay: Inhibition of STAT3 in human MDA-MB-231 cells assessed as decrease in cyclin D1 protein expression incubated for 24 hrs by Western blot analysis; type: cell-based
4T1 = assay: Antitumor activity against mouse 4T1 cells implanted in BALB/c mouse assessed as reduction in tumor volume at 10 mg/kg, ip for 14 days; type: functional; conditions: 4T1, ip, 336 h
MDA-MB-231 [20] = assay: Inhibition of colony formation in human MDA-MB-231 cells at 2 uM treated for 24 hrs and measured after 10 to 14 days by crystal violet staining based assay; type: functional

IC50 (HCT-116): 1.89 µM
IC50 (MCF7): 3.33 µM
Drug uptake [12]: Active
Drug uptake [13]: Active
inhibition [16]: Dose-dependent effect
inhibition [17]: Dose-dependent effect
inhibition [18]: inactive
inhibition [19]: Dose-dependent effect
SMILES: CCN(CC)c1ccc2cc(C(=O)N3CCN(C(=O)C4=Cc5c(Br)cccc5S4(=O)=O)CC3)c(=O)oc2c1
Activity (MDA-MB-231 [1]): 5.4%
Ratio IC50 (MDA-MB-231 [2]): 4.6 - 19
Ratio IC50 (HepG2): 4.6 - 19
selectivity ratio [3]: 10.2
selectivity ratio [4]: 12.4
inhibition (MDA-MB-231 [5]): Active
Activity (MDA-MB-231 [6]): 1.2%
viability at 2 µM (MDA-MB-231 [7]): 89.3%
Activity (MDA-MB-231 [8]): 7.4%
Activity (MDA-MB-231 [9]): 15.6%
Activity (MDA-MB-231 [10]): 2.1%
Activity (MDA-MB-231 [11]): Active
Activity (MDA-MB-231 [14]): Dose-dependent effect
Activity (MDA-MB-231 [15]): Dose-dependent effect
inhibition in vivo at 10 mg/kg (4T1): 52.3%
inhibition at 2 µM (MDA-MB-231 [20]): 100%

— ChEMBL document CHEMBL4393689, “Discovery of fluorescent coumarin-benzo[b]thiophene 1, 1-dioxide conjugates as mitochondria-targeting antitumor STAT3 inhibitors” (Eur J Med Chem, 2019)
